# Values of other authors as cited in patent US10357535B2, “Daptomycin formulations and uses thereof” (priority 2012, dated 2019).
# What was measured:
# [1] = test system: MSSA; conditions: in less than one hour
# [2] = test system: MRSA; conditions: in less than one hour
compound,measurement,setting,value
"CCCCCCCCCC(=O)NC(Cc1c[nH]c2ccccc12)C(=O)NC(CC(N)=O)C(=O)NC(CC(=O)O)C(=O)NC1C(=O)NCC(=O)NC(CCCN)C(=O)NC(CC(=O)O)C(=O)NC(C)C(=O)NC(CC(=O)O)C(=O)NCC(=O)NC(CO)C(=O)NC(C(C)CC(=O)O)C(=O)NC(CC(=O)c2ccccc2N)C(=O)OC1C (centres unmarked) [daptomycin, Daptomycin]",bacteria dead,[1],greater than 99.9%
same,bacteria dead,[2],greater than 99.9%
